Assay [1] concerns TNF-α. The experiment in a line: Ex vivo LPS-stimulated bladder tissue culture, TNF-α ELISA. Type of assay: cell-based, mice. Conditions: first study; BALB/c bladder tissue, 1 ug LPS + RDP58 50 uM final, 18 hrs, each pool. Here is the method:
The ability of RDP58 peptide bc-1nL in inhibiting cytokine production in bladder cells was examined. In a first study, BALB/c mice were euthanized with CO2 and the bladders harvested after voiding it of urine. Bladders were gently washed with RMPI 1640 media containing penicillin and streptomycin and minced into 1-2 mm pieces. Equal amounts of tissue were incubated overnight at 37° C. in 0.5 ml of RPMI culture medium in the presence of 1 ug LPS (E. coli. 055:B5; Sigma), 50 ul of RDP58 peptide (1 mg/ml) (50 uM final concentration), 1 ug LPS+50 ul of RDP58 peptde, or media alone. The culture supernatants were collected after 18 hrs, clarified by centrifugation, and assayed by ELISA for cytokines TNF-αand IFN-γ.
In a second study, bladders from 12 normal mice were harvested, pooled into four sets of three bladders, and the tissues minced into 1-2 mm pieces. Equal amounts of tissue were incubated overnight in culture media containing LPS, RDP58 peptide, LPS+RDP58 peptide, or media, as described above. After clarifying the culture medium by centrifugation, supernatants were assayed for presence of TNF-α by ELISA.
For orientation: In an ELISA, binding on a coated surface is turned into a signal by an enzyme label.

The test system of assay [2] is CD3 positive cells. The experiment in a line: Chronic interstitial cystitis model, CD3/CD45 immunostaining of bladder sections. Conditions: animals exposed to LPS, then RDP58; 24 hrs and 72 hrs after RDP58 treatment. Type of assay: in vivo, mice. As for the experimental part: Chronic IC model was induced in mice by transurethrally catheterizing mice and instilling with 15 ug of E.coli. lipopolysaccharide (LPS) in 150 ul. Controls were instilled with 150 ul of saline. Animals were treated three times per week for two weeks. To determine the effect of RDP58, animals were instilled with the peptide following 14 days of LPS instillation. Histological analyses of the bladders were carried out 24 or 72 hrs post treatment. Cytokine levels were assayed by removing the bladder 24 hrs following RDP58 treatment, culturing the tissue ex vivo, and assaying for cytokines, as described above. Bladder permeability used the FITC-dextran assay.
Bladder from the various animal groups were removed after the treatments and then sectioned. Morphology was examined by staining with haematoxylin-eosin. Sections were examined for the presence of T-cell differentiation markers CD3 or CD45 by immunostaining with anti-CD45 and anti-CD3 antibodies.

Take “Arg-nL-nL-nL-Arg-nL-nL-nL-Gly-Tyr [RDP58]”: the “inhibition of TNF-α production” value in assay [1] is “about 30%”. Also, in assay [2], the “CD3 positive cells in bladder tissue sections” value is “reduction of CD3 positive cells”.

For the origin of these results see patent publication US7671026B2, “Cytomodulating peptides for treating interstitial cystitis” (Sangstat Medical Corporation, priority 2002, dated 2010).
